The structures appear in SMILES notation. Several values for one entry are separate records, joined by “and”; a condition that tells them apart may be missing. Identical values can stand only once.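 Grown in 96-well plates, cells were treated for 48 hours with each compound at five concentrations. Insufficient inhibition: endpoint recorded as highest concentration tested. Here, GI50 denotes the concentration required for 50% inhibition of growth. Definition used: TGI = concentration required for complete inhibition of growth.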

Among the test systems are A549 NSCLC; EKVX NSCLC; MCF7 breast; NCI-H226 lung; NCI-H23 lung; PC-3 prostate; RXF 393 renal; SK-MEL-2 melanoma; SK-MEL-5 melanoma; IGROV1 ovarian; LOX IMVI melanoma.
Experiment in all cases: NCI tumour cell line growth inhibition, 48 h

Consider `Cc1cn(Cc2cn(CC3OC(n4cc(C)c(=O)[nH]c4=O)CC3O)nn2)c(=O)[nH]c1=O` (stereo unspecified), for which the TGI with A549 NSCLC, in the assay with EKVX NSCLC, in the assay on MCF7 breast, in the assay with NCI-H226 lung, in the assay with NCI-H23 lung and with PC-3 prostate was more than 100 µM each time. The TGI with RXF 393 renal, in the assay on SK-MEL-2 melanoma and in the assay with SK-MEL-5 melanoma was more than 100 µM each time.
On to `O=CN1CCC23CC(O)CCC2C1Cc1cc(Oc2nnnn2-c2ccccc2)cc(O)c13` (stereo unspecified), for which the TGI in the assay with A549 NSCLC, in the assay on EKVX NSCLC, with IGROV1 ovarian, with LOX IMVI melanoma, with MCF7 breast and in the assay on NCI-H226 lung was more than 100 µM in each case. Further, the TGI with NCI-H23 lung, in the assay on PC-3 prostate, in the assay with RXF 393 renal, with SK-MEL-2 melanoma and with SK-MEL-5 melanoma was more than 100 µM each time.
Consider `COc1cc(C2C(=O)C(Cl)N2Nc2nc(C)cc(=O)[nH]2)cc(OC)c1OC` (stereo unspecified), for which the TGI is more than 100 µM with A549 NSCLC; more than 100 µM in the assay with EKVX NSCLC; 35 µM in the assay with IGROV1 ovarian; 27.5 µM in the assay on LOX IMVI melanoma; 62.6 µM in the assay on NCI-H226 lung; 50.3 µM in the assay with NCI-H23 lung. The TGI with RXF 393 renal was 26.4 µM; with SK-MEL-2 melanoma it was 25.2 µM; with SK-MEL-5 melanoma, 26.5 µM.
Consider `CCOC(=O)C12CC(C)=C(C)CC1CCCc1ccccc12` (stereo unspecified), for which the TGI is more than 100 µM in the assay with A549 NSCLC; 49.5 µM in the assay with EKVX NSCLC; more than 100 µM in the assay with IGROV1 ovarian; 30.8 µM with LOX IMVI melanoma; 35.2 µM in the assay on MCF7 breast; 56 µM in the assay on NCI-H226 lung. Further, the TGI in the assay with NCI-H23 lung was more than 100 µM; in the assay on PC-3 prostate it was 68.1 µM; with RXF 393 renal it was 43.1 µM; with SK-MEL-2 melanoma it was 31.6 µM; in the assay on SK-MEL-5 melanoma, 37.5 µM.
Consider `C[C@H]1CCC/C=C/[C@@H]2C[C@H](O)C[C@H]2[C@H](O)/C=C/C(=O)O1`, for which the GI50 is < 0.0207 µM and 0.0435 µM and 0.0578 µM in the assay with A549 NSCLC; < 0.0164 µM and 0.0544 µM and 0.0447 µM in the assay on EKVX NSCLC; 0.0395 µM and 0.107 µM and 0.0723 µM in the assay with IGROV1 ovarian; 0.0417 µM in the assay on MCF7 breast; 0.0531 µM in the assay on NCI-H23 lung; < 0.0202 µM and 0.0475 µM and 0.0478 µM in the assay with PC-3 prostate. Further, in the assay on SK-MEL-5 melanoma, the GI50 was less than 0.0122 µM. Besides, the TGI with A549 NSCLC is more than 100 µM; with IGROV1 ovarian, 1.12 µM and 0.973 µM and 0.645 µM; in the assay with LOX IMVI melanoma, 0.0412 µM and 0.0275 µM; in the assay on NCI-H226 lung it was 0.0954 µM and 0.148 µM and 0.0478 µM; in the assay on RXF 393 renal, 0.0481 µM and 0.053 µM and 0.0188 µM; with SK-MEL-5 melanoma, < 0.01 µM and 0.0127 µM and 0.0164 µM.
In the case of `O=C(CSSCC(=O)OCCS(=O)(=O)Nc1ccc(Br)cc1)OCCS(=O)(=O)Nc1ccc(Br)cc1`, the TGI in the assay with A549 NSCLC was more than 100 µM; in the assay on EKVX NSCLC it was more than 100 µM; with IGROV1 ovarian, 88.7 µM; in the assay on LOX IMVI melanoma, 42.3 µM; with NCI-H23 lung, 64 µM; with RXF 393 renal it was 16.8 µM. Moreover, the TGI in the assay with SK-MEL-2 melanoma turned out to be 79.6 µM; with SK-MEL-5 melanoma, 26 µM.
`COc1cc(/C=C2\N=C(c3ccccc3)N(c3nc4ccc(Sc5ccccc5)cc4[nH]3)C2=O)cc(OC)c1OC`: the TGI was more than 100 µM with A549 NSCLC; more than 100 µM in the assay on EKVX NSCLC; more than 100 µM in the assay with IGROV1 ovarian; 61.7 µM in the assay with LOX IMVI melanoma; 45.9 µM in the assay with MCF7 breast; 97.3 µM in the assay on NCI-H23 lung. The TGI was more than 100 µM in the assay on PC-3 prostate, more than 100 µM in the assay on RXF 393 renal, 33 µM in the assay on SK-MEL-2 melanoma and 26.3 µM in the assay with SK-MEL-5 melanoma.
As to `O=C1CS(=O)(=O)C(c2cccc(Oc3ccccc3)c2)N1C1CC1` (stereo unspecified), the TGI was more than 100 µM with A549 NSCLC; more than 100 µM in the assay on EKVX NSCLC; more than 100 µM in the assay on LOX IMVI melanoma; 58 µM with MCF7 breast; 83.6 µM with NCI-H226 lung; more than 100 µM with NCI-H23 lung. Besides, the TGI with PC-3 prostate is 66.2 µM; in the assay on RXF 393 renal it was 55.1 µM; in the assay with SK-MEL-2 melanoma, more than 100 µM; in the assay with SK-MEL-5 melanoma, 39.3 µM.
As to `N=C(N)c1ccc(N=Nc2c(O)ccc3cc4c(N=Nc5ccc(C(=N)N)cc5)c(O)ccc4cc23)cc1`, the TGI in the assay with A549 NSCLC, with EKVX NSCLC, in the assay with IGROV1 ovarian, with MCF7 breast, in the assay with NCI-H226 lung and in the assay on PC-3 prostate was more than 100 µM each time. In addition, the TGI with RXF 393 renal, in the assay with SK-MEL-2 melanoma and in the assay with SK-MEL-5 melanoma was more than 100 µM each time.
As to `COc1ccc(N=Nc2c(N)nn(C)c2N)cc1`, the TGI in the assay with A549 NSCLC, with EKVX NSCLC, in the assay on IGROV1 ovarian, in the assay with LOX IMVI melanoma, in the assay on NCI-H226 lung and with NCI-H23 lung was more than 100 µM each time. For the same compound, the TGI in the assay with RXF 393 renal, in the assay on SK-MEL-2 melanoma and in the assay on SK-MEL-5 melanoma was more than 100 µM in each case.
Take `COc1cccc(NC(=O)CC(=O)NN2C(=O)/C(=C/c3ccc(N(CCC#N)CCC#N)cc3)N=C2c2cc([N+](=O)[O-])ccc2Cl)c1`: the TGI is more than 100 µM with A549 NSCLC; more than 100 µM with EKVX NSCLC; more than 100 µM with IGROV1 ovarian; more than 100 µM with LOX IMVI melanoma; 30.1 µM in the assay on NCI-H226 lung; more than 100 µM with NCI-H23 lung. Also, the TGI in the assay with RXF 393 renal, in the assay on SK-MEL-2 melanoma and with SK-MEL-5 melanoma was more than 100 µM throughout.
Take `Cn1c(=O)ccc2c(=O)c3ccccc3oc21`: the TGI with A549 NSCLC, with EKVX NSCLC, in the assay with IGROV1 ovarian, in the assay on LOX IMVI melanoma, in the assay with NCI-H226 lung and in the assay on NCI-H23 lung was more than 100 µM each time. Moreover, the TGI in the assay with PC-3 prostate, in the assay with RXF 393 renal, in the assay on SK-MEL-2 melanoma and in the assay with SK-MEL-5 melanoma was more than 100 µM in each case.
As to `CCOC(=O)/C(=C\NC(C)(C)CO)c1nc2ccccc2[nH]1`, the TGI with A549 NSCLC, in the assay with EKVX NSCLC, in the assay with IGROV1 ovarian, in the assay on LOX IMVI melanoma, with MCF7 breast and in the assay on NCI-H23 lung was more than 100 µM in each case. Besides, the TGI in the assay with RXF 393 renal and in the assay with SK-MEL-5 melanoma was more than 100 µM each time.
For `O=c1c(-c2ccccc2)c(SCCN2CCOCC2)n(-c2ccccc2)c(=S)n1-c1ccccc1`, the TGI in the assay on EKVX NSCLC, in the assay on IGROV1 ovarian, with LOX IMVI melanoma, with MCF7 breast, in the assay with NCI-H226 lung and in the assay with NCI-H23 lung was more than 100 µM in each case. Moreover, the TGI with PC-3 prostate, in the assay with RXF 393 renal, with SK-MEL-2 melanoma and in the assay on SK-MEL-5 melanoma was more than 100 µM throughout.

Source of the values: PubChem BioAssay (NCI).
